Reference: ChEMBL document CHEMBL5143756, “Identification of a BAZ2A-Bromodomain Hit Compound by Fragment Growing” (ACS Med Chem Lett, 2022)

Molecular target: Bromodomain adjacent to zinc finger domain protein 2A (Homo sapiens) (UniProt Q9UIF9)
Assay: Inhibition of His6-tagged BAZ2A (unknown origin) (1796 to 1899 residues) assessed as residual activity at 100 uM using H3K(Ac)14 substrate by AlphaScreen assay relative to control

Chain of Bromodomain adjacent to zinc finger domain protein 2A (Homo sapiens) (Q9UIF9 whole entry, the tested form may be a part): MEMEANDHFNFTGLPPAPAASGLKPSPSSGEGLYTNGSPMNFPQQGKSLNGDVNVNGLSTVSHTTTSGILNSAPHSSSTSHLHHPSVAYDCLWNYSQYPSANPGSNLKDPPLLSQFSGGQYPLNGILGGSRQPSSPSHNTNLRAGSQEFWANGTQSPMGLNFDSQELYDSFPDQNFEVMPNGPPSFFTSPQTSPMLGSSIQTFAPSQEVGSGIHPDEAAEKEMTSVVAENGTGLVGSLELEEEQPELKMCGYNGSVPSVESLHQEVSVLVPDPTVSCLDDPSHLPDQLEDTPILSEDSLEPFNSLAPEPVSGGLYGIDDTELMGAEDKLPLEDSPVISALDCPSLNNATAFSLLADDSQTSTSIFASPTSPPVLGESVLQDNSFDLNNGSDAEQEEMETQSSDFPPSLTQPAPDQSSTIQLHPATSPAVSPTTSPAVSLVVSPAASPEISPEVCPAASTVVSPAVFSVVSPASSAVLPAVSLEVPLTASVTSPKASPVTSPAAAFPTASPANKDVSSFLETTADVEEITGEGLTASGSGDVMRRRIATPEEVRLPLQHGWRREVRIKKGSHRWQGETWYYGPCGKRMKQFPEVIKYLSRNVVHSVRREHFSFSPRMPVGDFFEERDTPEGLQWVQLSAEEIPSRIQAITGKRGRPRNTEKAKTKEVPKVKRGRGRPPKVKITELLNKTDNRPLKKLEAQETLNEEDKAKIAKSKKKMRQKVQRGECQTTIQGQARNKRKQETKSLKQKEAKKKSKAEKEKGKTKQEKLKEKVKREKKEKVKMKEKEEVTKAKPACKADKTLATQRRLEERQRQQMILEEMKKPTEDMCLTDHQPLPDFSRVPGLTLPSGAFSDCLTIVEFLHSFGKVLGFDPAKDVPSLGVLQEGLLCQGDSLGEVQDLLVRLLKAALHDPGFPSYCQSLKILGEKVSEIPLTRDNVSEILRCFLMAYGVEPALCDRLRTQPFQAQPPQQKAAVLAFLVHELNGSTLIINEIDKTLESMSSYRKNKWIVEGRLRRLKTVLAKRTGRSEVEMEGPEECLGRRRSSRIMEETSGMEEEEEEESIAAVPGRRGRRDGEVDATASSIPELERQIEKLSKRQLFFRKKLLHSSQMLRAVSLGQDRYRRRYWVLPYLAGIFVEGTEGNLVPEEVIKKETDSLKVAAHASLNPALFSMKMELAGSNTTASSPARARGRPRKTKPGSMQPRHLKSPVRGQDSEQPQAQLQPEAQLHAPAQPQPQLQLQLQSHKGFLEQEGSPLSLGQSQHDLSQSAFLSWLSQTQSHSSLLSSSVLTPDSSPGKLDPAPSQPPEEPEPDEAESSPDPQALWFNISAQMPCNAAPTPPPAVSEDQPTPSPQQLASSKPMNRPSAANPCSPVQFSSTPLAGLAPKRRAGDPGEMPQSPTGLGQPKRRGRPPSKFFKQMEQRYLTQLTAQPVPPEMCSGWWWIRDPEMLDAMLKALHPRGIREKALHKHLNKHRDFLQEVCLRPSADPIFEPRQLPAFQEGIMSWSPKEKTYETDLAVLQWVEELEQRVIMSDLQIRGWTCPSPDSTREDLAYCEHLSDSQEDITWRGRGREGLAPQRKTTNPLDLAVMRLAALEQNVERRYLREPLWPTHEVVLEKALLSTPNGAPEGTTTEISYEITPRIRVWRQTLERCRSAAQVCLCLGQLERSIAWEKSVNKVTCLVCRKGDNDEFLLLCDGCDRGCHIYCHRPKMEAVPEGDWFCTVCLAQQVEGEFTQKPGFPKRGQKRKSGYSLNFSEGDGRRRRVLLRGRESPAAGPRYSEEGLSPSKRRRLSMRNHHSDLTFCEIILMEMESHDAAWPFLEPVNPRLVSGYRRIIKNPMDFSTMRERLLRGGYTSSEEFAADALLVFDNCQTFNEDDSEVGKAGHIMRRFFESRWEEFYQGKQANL

`CC(=O)c1c(C)[nH]c(-c2csc(N=C(N)N)n2)c1CCC(C)C` was tested, and the Activity was greater than 50%.
